Experimental data: PubChem BioAssay (NCI)
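Method: 48-hour compound exposure of cells in 96-well plates, five concentrations, linear interpolation of endpoints. The concentration for 50% growth inhibition is given as GI50. TGI: concentration producing complete growth inhibition.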

Key:
Experiment in all cases: NCI anticancer screen, dose series, 48 h
786-0 renal = tested on: 786-0 renal
A549 NSCLC = tested on: A549 NSCLC
ACHN renal = tested on: ACHN renal
BT-549 breast = tested on: BT-549 breast
CAKI-1 renal = tested on: CAKI-1 renal
CCRF-CEM leukemia = tested on: CCRF-CEM leukemia
COLO 205 colon = tested on: COLO 205 colon
DU-145 prostate = tested on: DU-145 prostate
EKVX NSCLC = tested on: EKVX NSCLC
HCC-2998 colon = tested on: HCC-2998 colon
HCT-116 colon = tested on: HCT-116 colon
HCT-15 colon = tested on: HCT-15 colon
HL-60(TB) leukemia = tested on: HL-60(TB) leukemia
HOP-62 NSCLC = tested on: HOP-62 NSCLC
HOP-92 NSCLC = tested on: HOP-92 NSCLC
HT29 colon = tested on: HT29 colon
IGROV1 ovarian = tested on: IGROV1 ovarian
K-562 leukemia = tested on: K-562 leukemia
KM12 colon = tested on: KM12 colon
M14 melanoma = tested on: M14 melanoma
MALME-3M melanoma = tested on: MALME-3M melanoma
MCF7 breast = tested on: MCF7 breast
MDA-MB-231 breast = tested on: MDA-MB-231 breast
MDA-MB-435 = tested on: MDA-MB-435
MDA-N = tested on: MDA-N
MOLT-4 leukemia = tested on: MOLT-4 leukemia
NCI-H23 lung = tested on: NCI-H23 lung
NCI-H460 lung = tested on: NCI-H460 lung
NCI-H522 lung = tested on: NCI-H522 lung
NCI/ADR-RES ovarian = tested on: NCI/ADR-RES ovarian
OVCAR-3 ovarian = tested on: OVCAR-3 ovarian
OVCAR-4 ovarian = tested on: OVCAR-4 ovarian
OVCAR-5 ovarian = tested on: OVCAR-5 ovarian
RPMI-8226 leukemia = tested on: RPMI-8226 leukemia
SF-268 CNS = tested on: SF-268 CNS
SF-295 CNS = tested on: SF-295 CNS
SF-539 CNS = tested on: SF-539 CNS
SK-MEL-2 melanoma = tested on: SK-MEL-2 melanoma
SK-MEL-28 melanoma = tested on: SK-MEL-28 melanoma
SK-MEL-5 melanoma = tested on: SK-MEL-5 melanoma
SK-OV-3 ovarian = tested on: SK-OV-3 ovarian
SN12C renal = tested on: SN12C renal
SNB-19 CNS = tested on: SNB-19 CNS
SNB-75 CNS = tested on: SNB-75 CNS
SR leukemia = tested on: SR leukemia
TK-10 renal = tested on: TK-10 renal
U251 CNS = tested on: U251 CNS
UACC-62 melanoma = tested on: UACC-62 melanoma
UO-31 renal = tested on: UO-31 renal
PC-3 prostate = tested on: PC-3 prostate
A498 renal = tested on: A498 renal
HS 578T breast = tested on: HS 578T breast
LOX IMVI melanoma = tested on: LOX IMVI melanoma
NCI-H226 lung = tested on: NCI-H226 lung
OVCAR-8 ovarian = tested on: OVCAR-8 ovarian
RXF 393 renal = tested on: RXF 393 renal
SW-620 colon = tested on: SW-620 colon
T-47D breast = tested on: T-47D breast
UACC-257 melanoma = tested on: UACC-257 melanoma

## CCN1CCCC(Nc2cc(C)nc(/N=C(/N)Nc3ccc(Cl)c(Cl)c3)n2)C1 (stereo not drawn)
786-0 renal
  TGI: 2.95 µM
A549 NSCLC
  TGI: 4.22 µM
ACHN renal
  TGI: 5.56 µM
BT-549 breast
  TGI: 3.29 µM
CAKI-1 renal
  TGI: 3.1 µM
CCRF-CEM leukemia
  TGI: 2.4 µM
COLO 205 colon
  TGI: 2.95 µM
DU-145 prostate
  TGI: 15.3 µM
EKVX NSCLC
  TGI: 11.4 µM
HCC-2998 colon
  TGI: 1.89 µM
HCT-116 colon
  TGI: 2.76 µM
HCT-15 colon
  TGI: 3.7 µM
HL-60(TB) leukemia
  TGI: 1.33 µM
HOP-62 NSCLC
  TGI: 2.88 µM
HOP-92 NSCLC
  TGI: 3.33 µM
HT29 colon
  TGI: 15.7 µM
IGROV1 ovarian
  TGI: 3.06 µM
K-562 leukemia
  TGI: 0.558 µM
KM12 colon
  TGI: 3.46 µM
M14 melanoma
  TGI: 0.684 µM
MALME-3M melanoma
  TGI: 4.02 µM
MCF7 breast
  TGI: 3.59 µM
MDA-MB-231 breast
  TGI: 3.84 µM
MDA-MB-435
  TGI: 2.89 µM
MDA-N
  TGI: 3.16 µM
MOLT-4 leukemia
  TGI: 2.42 µM
NCI-H23 lung
  TGI: 4.81 µM
NCI-H460 lung
  TGI: 2.93 µM
NCI-H522 lung
  TGI: 2.61 µM
NCI/ADR-RES ovarian
  TGI: 8.58 µM
OVCAR-3 ovarian
  TGI: 3.59 µM
OVCAR-4 ovarian
  TGI: 4.97 µM
OVCAR-5 ovarian
  TGI: 8.11 µM
RPMI-8226 leukemia
  TGI: 2.3 µM
SF-268 CNS
  TGI: 5.63 µM
SF-295 CNS
  TGI: 2.41 µM
SF-539 CNS
  TGI: 3.66 µM
SK-MEL-2 melanoma
  TGI: 4.04 µM
SK-MEL-28 melanoma
  TGI: 3.34 µM
SK-MEL-5 melanoma
  TGI: 5.35 µM
SK-OV-3 ovarian
  TGI: 5.24 µM
SN12C renal
  TGI: 6.64 µM
SNB-19 CNS
  TGI: 5.59 µM
SNB-75 CNS
  TGI: 2.71 µM
SR leukemia
  TGI: 2.88 µM
TK-10 renal
  TGI: 3.22 µM
U251 CNS
  TGI: 2.6 µM
UACC-62 melanoma
  TGI: 3.31 µM
UO-31 renal
  TGI: 2.18 µM

## CC[C@H]1C=CCC[C@@]2(C[C@@H]3CC[C@@H]4[C@H](C(=O)OCCCCCCCCCCCCCCCC(=O)N(CCCN)CCCCN)[C@]5(CCC[C@@H](C)O5)NC(=[N+]34)N2)O1
A549 NSCLC
  TGI: 1.42 µM
CAKI-1 renal
  TGI: 1.59 µM
HCT-116 colon
  TGI: 1.41 µM
HCT-15 colon
  TGI: 1.4 µM
HOP-62 NSCLC
  TGI: 0.106 µM
HOP-92 NSCLC
  TGI: 0.197 µM
HT29 colon
  TGI: 1.32 µM
IGROV1 ovarian
  TGI: 2.28 µM
KM12 colon
  TGI: 1.2 µM
M14 melanoma
  TGI: 0.0187 µM
MALME-3M melanoma
  TGI: 0.119 µM
MDA-N
  TGI: 1.83 µM
NCI-H23 lung
  TGI: 1.07 µM
NCI/ADR-RES ovarian
  TGI: 2.7 µM
PC-3 prostate
  TGI: 1.46 µM
SNB-19 CNS
  TGI: 1.99 µM
U251 CNS
  TGI: 1.54 µM
UO-31 renal
  TGI: 0.334 µM

## NS(=O)(=O)c1cccc(-c2ccc3c(NC(=O)C4CC4)n[nH]c3c2)c1
786-0 renal
  GI50: 24.3 µM
  TGI: > 25 µM
A498 renal
  GI50: > 19.8 µM
  TGI: > 25 µM
A549 NSCLC
  GI50: > 25 µM
  TGI: > 25 µM
ACHN renal
  GI50: > 25 µM
  TGI: > 25 µM
BT-549 breast
  GI50: > 21 µM
  TGI: > 25 µM
CAKI-1 renal
  GI50: > 25 µM
  TGI: > 25 µM
CCRF-CEM leukemia
  GI50: 8.51 µM
  TGI: > 25 µM
COLO 205 colon
  GI50: > 14.5 µM
  TGI: > 22.9 µM
DU-145 prostate
  GI50: 14.7 µM
  TGI: > 25 µM
EKVX NSCLC
  GI50: > 25 µM
  TGI: > 25 µM
HCC-2998 colon
  GI50: > 22.1 µM
  TGI: > 25 µM
HCT-116 colon
  GI50: > 16.9 µM
  TGI: > 25 µM
HCT-15 colon
  GI50: > 25 µM
  TGI: > 25 µM
HL-60(TB) leukemia
  GI50: 8.31 µM
  TGI: > 22.5 µM
HOP-62 NSCLC
  GI50: > 14.2 µM
  TGI: 24.7 µM
HOP-92 NSCLC
  GI50: > 25 µM
  TGI: > 25 µM
HS 578T breast
  GI50: 9.6 µM
  TGI: > 25 µM
HT29 colon
  GI50: > 14.4 µM
  TGI: > 25 µM
IGROV1 ovarian
  GI50: > 25 µM
  TGI: > 25 µM
K-562 leukemia
  GI50: 8.38 µM
  TGI: > 25 µM
KM12 colon
  GI50: 11.3 µM
  TGI: > 25 µM
LOX IMVI melanoma
  GI50: 19.4 µM
  TGI: > 25 µM
M14 melanoma
  GI50: 12.3 µM
  TGI: > 25 µM
MALME-3M melanoma
  GI50: > 19.8 µM
  TGI: > 25 µM
MCF7 breast
  GI50: > 13.3 µM
  TGI: > 24.1 µM
MDA-MB-231 breast
  GI50: 25 µM
  TGI: > 25 µM
MDA-MB-435
  GI50: 5.31 µM
  TGI: 15.3 µM
MOLT-4 leukemia
  GI50: 19.2 µM
  TGI: > 25 µM
NCI-H226 lung
  GI50: > 15.1 µM
  TGI: > 25 µM
NCI-H23 lung
  GI50: > 25 µM
  TGI: > 25 µM
NCI-H460 lung
  GI50: > 16.4 µM
  TGI: > 25 µM
NCI-H522 lung
  GI50: 5.32 µM
  TGI: > 19 µM
NCI/ADR-RES ovarian
  GI50: > 25 µM
  TGI: > 25 µM
OVCAR-3 ovarian
  GI50: 6.71 µM
  TGI: > 17.6 µM
OVCAR-4 ovarian
  GI50: 16.7 µM
  TGI: > 25 µM
OVCAR-5 ovarian
  GI50: > 25 µM
  TGI: > 25 µM
OVCAR-8 ovarian
  GI50: 24.3 µM
  TGI: > 25 µM
PC-3 prostate
  GI50: 15.6 µM
  TGI: > 25 µM
RPMI-8226 leukemia
  GI50: > 25 µM
  TGI: > 25 µM
RXF 393 renal
  GI50: > 15 µM
  TGI: > 25 µM
SF-268 CNS
  GI50: > 21.6 µM
  TGI: > 25 µM
SF-295 CNS
  GI50: > 25 µM
  TGI: > 25 µM
SF-539 CNS
  GI50: 14.3 µM
  TGI: > 25 µM
SK-MEL-2 melanoma
  GI50: 8.78 µM
  TGI: 24.9 µM
SK-MEL-28 melanoma
  GI50: 15.7 µM
  TGI: > 25 µM
SK-MEL-5 melanoma
  GI50: > 14.7 µM
  TGI: > 25 µM
SK-OV-3 ovarian
  GI50: 9.16 µM
  TGI: 23.6 µM
SN12C renal
  GI50: > 21.1 µM
  TGI: > 25 µM
SNB-19 CNS
  GI50: 20.4 µM
  TGI: > 25 µM
SNB-75 CNS
  GI50: > 13.8 µM
  TGI: > 25 µM
SR leukemia
  GI50: 3.59 µM
  TGI: > 25 µM
SW-620 colon
  GI50: > 15.1 µM
  TGI: > 25 µM
T-47D breast
  GI50: 13.3 µM
  TGI: > 25 µM
TK-10 renal
  GI50: > 25 µM
  TGI: > 25 µM
U251 CNS
  GI50: 12.8 µM
  TGI: > 25 µM
UACC-257 melanoma
  GI50: > 18.1 µM
  TGI: > 25 µM
UACC-62 melanoma
  GI50: 15.7 µM
  TGI: > 25 µM
UO-31 renal
  GI50: > 25 µM
  TGI: > 25 µM
